The source of these data is ChEMBL document CHEMBL1126133, “2-Nitroimidazole dual-function bioreductive drugs: studies on the effects of regioisomerism and side-chain structural modifications on differential cytotoxicity and radiosensitization by aziridinyl and oxiranyl derivatives” (1992).

The nature of one assay: Concentration required to kill 50% of V79-379A cells under N2 (in vitro). It counts as functional, Cricetulus griseus.
The compound `O=[N+]([O-])c1nccn1CCC1CO1` (stereo not given) showed a C50 of 0.25 mM.
The same measure, in the same setting: for `CC(C)(C(O)Cn1ccnc1[N+](=O)[O-])N1CC1` (stereo not given) the value was 0.008 mM; for `O=[N+]([O-])c1nccn1[C@H]1CCC[C@@H](N2CC2)[C@@H]1O`, 0.35 mM; for `CC(O)(CN1CC1)Cn1ccnc1[N+](=O)[O-]` (stereo not given), 0.02 mM.
In the case of `C[C@@H]([C@H](O)Cn1ccnc1[N+](=O)[O-])N1CC1`, the C50 stood at 0.01 mM.
In the case of `CC1CN1CC(O)Cn1ccnc1[N+](=O)[O-]` (stereo not given), the C50 amounted to 0.065 mM.
`O=[N+]([O-])c1nccn1[C@@H]1CCC[C@@H]2O[C@@H]21`: the C50 is reported as 0.18 mM.
On to `CC1(Cn2ccnc2[N+](=O)[O-])CO1` (stereo not given), for which the C50 is 0.2 mM.
Compound `O=[N+]([O-])c1nccn1CCCCC1CO1` (stereo not given) had a C50 of 0.7 mM.
Same read-out and setting: the same measure for `O=[N+]([O-])c1nccn1CC(O)CCC1CO1` (stereo not given): 0.4 mM; for `CC1OC1Cn1ccnc1[N+](=O)[O-]` (stereo not given): 3.3 mM.
`O=[N+]([O-])c1nccn1CC(O)C1CO1` (stereo not given) showed a C50 of 0.36 mM.
For the compound `O=[N+]([O-])c1nccn1CC(O)CN1CC1` (stereo not given), the C50 was determined as 0.015 mM.
The compound `O=[N+]([O-])c1ncc[nH]1` [AZOMYCIN] gave a C50 of 0.27 mM.

The next assay is described as follows: Ratio of concentration required to kill 50% aerobic V79-379A cells C50(air) to that of concentration required to kill 50% of cells under N2 C50(N2) was determined. The assay is classed as functional.
In the case of `O=[N+]([O-])c1nccn1CCC1CO1` (stereo not given), the Ratio worked out at 2.
In the case of `CC(C)(C(O)Cn1ccnc1[N+](=O)[O-])N1CC1` (stereo not given), the Ratio amounted to 12.5.
Consider `O=[N+]([O-])c1nccn1[C@H]1CCC[C@@H](N2CC2)[C@@H]1O`, for which the Ratio is 1.
On to `CC(O)(CN1CC1)Cn1ccnc1[N+](=O)[O-]` (stereo not given), for which the Ratio was 27.5.
On to `C[C@@H]([C@H](O)Cn1ccnc1[N+](=O)[O-])N1CC1`, for which the Ratio turned out to be 20.
For `CC1CN1CC(O)Cn1ccnc1[N+](=O)[O-]` (stereo not given), the Ratio worked out at 12.2.
In the case of `O=[N+]([O-])c1nccn1[C@@H]1CCC[C@@H]2O[C@@H]21`, the Ratio stood at 1.5.
Consider `CC1(Cn2ccnc2[N+](=O)[O-])CO1` (stereo not given), for which the Ratio was determined as 1.
Take `O=[N+]([O-])c1nccn1CCCCC1CO1` (stereo not given): the Ratio came to 1.7.
On the same count and under the same terms, for `O=[N+]([O-])c1nccn1CC(O)CCC1CO1` (stereo not given) the value was 1.5; for `CC1OC1Cn1ccnc1[N+](=O)[O-]` (stereo not given), 3.
As for `O=[N+]([O-])c1nccn1CC(O)C1CO1` (stereo not given), the Ratio amounted to 3.3.
The same measure, in the same setting: for `O=[N+]([O-])c1nccn1CC(O)CN1CC1` (stereo not given) the value was 20; for `O=[N+]([O-])c1ncc[nH]1` [AZOMYCIN], 2.

A short description of a further assay: Radiosensitization of hypoxic V79-379A cells was determined in vitro; expressed as concentration required to give enhancement ratio of 1.6.
Regarding `CC(C)(C(O)Cn1ccnc1[N+](=O)[O-])N1CC1` (stereo not given), the C1.6 is given as 0.07 mM.
On to `O=[N+]([O-])c1nccn1[C@H]1CCC[C@@H](N2CC2)[C@@H]1O`, for which the C1.6 was 0.45 mM.
Consider `C[C@@H]([C@H](O)Cn1ccnc1[N+](=O)[O-])N1CC1`, for which the C1.6 was determined as 0.12 mM.
Still for that read-out and setting: the same measure for `CC1CN1CC(O)Cn1ccnc1[N+](=O)[O-]` (stereo not given): 0.08 mM.
Consider `O=[N+]([O-])c1nccn1CC(O)CCC1CO1` (stereo not given), for which the C1.6 was determined as 0.4 mM.
With `O=[N+]([O-])c1nccn1CC(O)C1CO1` (stereo not given), the C1.6 amounted to 0.2 mM.
On to `O=[N+]([O-])c1nccn1CC(O)CN1CC1` (stereo not given), for which the C1.6 is reported as 0.1 mM.
Same read-out and setting: for `O=[N+]([O-])c1ncc[nH]1` [AZOMYCIN] the value was 0.25 mM.

A further assay is described as follows: Concentration required to kill 50% of aerobic V79-379A cells (in vitro). It counts as functional, Cricetulus griseus.
In turn, `O=[N+]([O-])c1nccn1CCC1CO1` (stereo not given) yielded a C50 of 0.5 mM.
The compound `CC(C)(C(O)Cn1ccnc1[N+](=O)[O-])N1CC1` (stereo not given) displayed a C50 of 0.1 mM.
In the case of `O=[N+]([O-])c1nccn1[C@H]1CCC[C@@H](N2CC2)[C@@H]1O`, the C50 was 0.35 mM.
Same read-out and setting: for `CC(O)(CN1CC1)Cn1ccnc1[N+](=O)[O-]` (stereo not given) the value was 0.55 mM.
Consider `C[C@@H]([C@H](O)Cn1ccnc1[N+](=O)[O-])N1CC1`, for which the C50 amounted to 0.2 mM.
Turning to `CC1CN1CC(O)Cn1ccnc1[N+](=O)[O-]` (stereo not given), the C50 is reported as 0.79 mM.
`O=[N+]([O-])c1nccn1[C@@H]1CCC[C@@H]2O[C@@H]21` returned a C50 of 0.28 mM.
The compound `CC1(Cn2ccnc2[N+](=O)[O-])CO1` (stereo not given) came in with a C50 of 0.2 mM.
Take `O=[N+]([O-])c1nccn1CCCCC1CO1` (stereo not given): the C50 was determined as 1.2 mM.
The compound `O=[N+]([O-])c1nccn1CC(O)CCC1CO1` (stereo not given) came in with a C50 of 0.6 mM.
`CC1OC1Cn1ccnc1[N+](=O)[O-]` (stereo not given) gave a C50 of 10 mM.
Consider `O=[N+]([O-])c1nccn1CC(O)C1CO1` (stereo not given), for which the C50 is on record as 1.2 mM.
On to `O=[N+]([O-])c1nccn1CC(O)CN1CC1` (stereo not given), for which the C50 is recorded as 0.3 mM.
`O=[N+]([O-])c1ncc[nH]1` [AZOMYCIN] gave a C50 of 0.55 mM.
